# Experimental data published in patent US9693983B2, “Use of glyceryl trinitrate for treating traumatic edema” (G. Pohl-Boskamp GmbH & Co. KG, priority 2010, dated 2017).
# Test system: traumatic edema
# Assay: Topical application of GTN to traumatic edema, general observation
# Assay type: in vivo
# Excerpt: The detumescence of the swelling associated with a traumatic edema is accelerated; instead of darkening of the skin, the healing occurs with a green, followed by a yellow, coloration of the affected skin area.
smiles,measurement,setting,value
"O=[N+]([O-])OCC(CO[N+](=O)[O-])O[N+](=O)[O-] [GTN, glyceryl trinitrate]",typical swelling and darkening of the affected skin sites,"1.2 to 6 mg GTN on day of injury, then 0.8 to 1.6 mg GTN daily, topical",reduces and/or prevents
same,individual healing phases,compared to an untreated edema,significantly shortened
same,reduction of overall healing period for the treated edemas,compared to an untreated edema,one-half
same,healing of traumatic edema,topically applied,greatly accelerates
